Reference: paper PMC6588349 (eLife, 2019)

Columns and labels:
SNAP-mGluR2 = biological target: T1, SNAP-mGluR2 (Rattus norvegicus, UniProt P31421); experiment: Single-molecule pulldown (SiMPull) photobleaching step counting, full-length SNAP-mGluR2; conditions: saturating (1 mM) glutamate
T1 construct: HEK 293T cells expressing full-length mGluR2; expressed in transfected cells; host or cells: HEK 293T
Description: To restrict our analysis to surface-targeted receptors, we expressed N-terminally SNAP-tagged receptor variants and labeled them with membrane-impermeable fluorophores.
To test this, we incubated SNAP-mGluR2-TMD expressing cells and lysates with PAMs or NAMs during the SiMPull experiment.
Briefly, to prevent non-specific sticking of proteins, flow chambers were prepared with mPEG-passivated glass slides and coverslips doped with ~1% biotinylated mPEG, as previously described. Prior to each experiment, chambers were incubated with 0.2 mg/mL NeutrAvidin (ThermoFisher) for 2 min followed by 10 nM of a biotinylated anti-HA antibody (abcam ab26228) for 20–30 min. After each conjugation step, the chambers were washed with T50 buffer (50 mM NaCl, 10 mM Tris, pH 7.5).
After labeling, cells were dissociated from coverslips by incubating with Ca^2+-free PBS for 20 min followed by gentle pipetting. […] Following 1 hr of lysis at 4°C, cells were centrifuged at 16,000 g for 20 min before the supernatant was collected and maintained on ice. The cell lysate was diluted in a 0.1% detergent dilution buffer to obtain sparse immobilization of labeled protein on the passivated slide. […]
Single molecules were imaged with a 100x objective on an inverted microscope (Olympus IX73) in total internal reflection fluorescence (TIRF) mode. […]

[1] = biological target: T2, SNAP-mGluR2 (full-length) (Rattus norvegicus, UniProt P31421); experiment: Inter-LBD FRET assay with full-length SNAP-mGluR2; type: cell-based; conditions: drug applied alone, saturating concentrations
T2 construct: HEK 293T cells expressing full-length mGluR2; expressed in transfected cells; host or cells: HEK 293T
T2 sequence (P31421 19-872): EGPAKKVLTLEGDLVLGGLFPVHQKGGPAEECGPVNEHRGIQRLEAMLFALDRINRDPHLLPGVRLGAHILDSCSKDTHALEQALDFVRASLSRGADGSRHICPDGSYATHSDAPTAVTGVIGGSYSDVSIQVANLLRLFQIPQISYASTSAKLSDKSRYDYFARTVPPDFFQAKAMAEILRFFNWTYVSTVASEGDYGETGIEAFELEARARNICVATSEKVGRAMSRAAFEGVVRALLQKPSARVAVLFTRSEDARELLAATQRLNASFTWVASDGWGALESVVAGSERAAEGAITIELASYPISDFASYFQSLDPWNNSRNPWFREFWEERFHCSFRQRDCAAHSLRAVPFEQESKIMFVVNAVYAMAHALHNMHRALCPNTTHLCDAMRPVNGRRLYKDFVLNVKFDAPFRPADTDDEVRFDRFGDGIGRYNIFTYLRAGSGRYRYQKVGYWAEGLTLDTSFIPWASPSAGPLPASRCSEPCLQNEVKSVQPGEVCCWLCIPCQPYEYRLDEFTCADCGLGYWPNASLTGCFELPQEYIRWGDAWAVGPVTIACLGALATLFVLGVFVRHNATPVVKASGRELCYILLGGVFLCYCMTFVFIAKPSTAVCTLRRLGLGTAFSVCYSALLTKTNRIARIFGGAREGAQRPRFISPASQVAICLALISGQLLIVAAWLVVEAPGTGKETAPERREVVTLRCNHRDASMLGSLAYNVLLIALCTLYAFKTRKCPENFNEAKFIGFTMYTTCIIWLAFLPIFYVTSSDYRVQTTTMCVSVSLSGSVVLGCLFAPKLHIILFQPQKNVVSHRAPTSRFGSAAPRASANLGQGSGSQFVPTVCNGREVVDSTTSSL
Source text: We next sought to further probe the variation in PAM-induced inter-TMD FRET changes. […] We used an inter-LBD FRET assay to assess the relative strength of allosteric modulation by different mGluR2 PAMs. Agonists induce a decrease in FRET between fluorophore-conjugated N-terminal SNAP- and CLIP-tags (Figure 4E). […] We tested this effect for all PAMs by applying a saturating concentration of DCG-IV followed by co-application of a saturating concentration of each PAM, which produced further FRET decreases (Figure 4F,G).
(§1) Fluorophores were diluted in EX solution, which was also used to wash coverslips following labeling and prior to mounting on the microscope. After labeling, cells were mounted on an inverted microscope (Olympus IX73) and imaged with a 60x objective. […] Clusters of cells were analyzed together using ImageJ and FRET was calculated as FRET=(IAcceptor)/(IDonor +IAcceptor) where I is fluorescence intensity. No corrections were made for bleed-through between channels or the contribution of donor-donor or acceptor-acceptor dimers as analysis was limited to relative FRET changes between drug treatments rather than absolute FRET values. […] FRET changes calculated for dose–response curves were normalized to the response to saturating […] applied within the same recording and dose–response curves were obtained from multiple cell clusters and averaged from at least three separate experiments. Dose–response curves were fit using Prism (Graphpad). All drugs were purchased from Tocris, prepared in EX solution, and delivered with a gravity-driven perfusion system. For kinetics measurements a pressurized perfusion system (Automate Scientific) was used to produce a flow rate of 0.5 mL/s. Kinetic analysis was performed in Microsoft Excel. The time between 10% and 90% FRET increase or decrease was determined manually. For photo-bleaching/donor-recovery experiments, images were taken in donor and acceptor channels at baseline and again followed by a 1 min exposure to 640 nm laser illumination at maximum intensity. All experiments were performed at room temperature. All data were produced from at least two separate transfections for each condition.

[2] = biological target: T3, full-length mGluR2 (SNAP-mGluR2) (Rattus norvegicus, UniProt P31421); experiment: GIRK activation assay, whole cell patch clamp, HEK 293T cells expressing full-length mGluR2; type: cell-based; conditions: for EC50: read-out: GIRK activation EC50
T3 construct: HEK 293T cells expressing full-length mGluR2; expressed in transfected cells; host or cells: HEK 293T
T3 sequence (P31421 19-872): as above
Description: (§2) Cells were cultured in DMEM with 5% FBS on poly-L-lysine-coated glass coverslips. DNA plasmids were transfected into cells using Lipofectamine 3000 (Thermo Fisher). […] For single-molecule pulldown (SiMPull) experiments, cells were transfected with 0.7 μg DNA of HA and SNAP-tagged receptor constructs, unless otherwise noted.
Whole-cell patch clamp recordings from single isolated cells were performed 24–36 hr after transfection in a high-potassium extracellular solution containing (in mM): 120 KCl, 29 NaCl, 1 MgCl2, 2 CaCl2 and 10 HEPES, pH 7.4. Cells were voltage clamped to −60 mV using an Axopatch 200B amplifier (Axon Instruments) and membrane currents were recorded. Glass pipettes of resistance between 3 and 8 MΩ were filled with intracellular solution containing (in mM): 140 KCl, 10 HEPES, 3 Na2ATP, 0.2 Na2GTP, 5 EGTA and 3 MgCl2, pH 7.4. Data were acquired with a 2 kHz acquisition rate and filtered with the amplifier 4-pole Bessel filter at 1 kHz. Drugs were prepared in extracellular solution and applied using a gravity-driven perfusion system. Data were analyzed with Clampfit (Molecular Devices) and Prism (GraphPad). Data for all conditions came from at least two separate transfections.

SNAP-mGluR2-TMD = biological target: T4, SNAP-mGluR2-TMD (Rattus norvegicus, UniProt P31421); experiment: Inter-TMD FRET assay in living HEK 293T cells; type: cell-based; conditions: for EC50: SNAP-mGluR2-TMD labeled with donor and acceptor, normalized to saturating LY48, mean ± s.e.m., read-out: inter-TMD FRET increase EC50
T4 construct: mGluR2-TMD (rat) starts at Q558; expressed in transfected cells; host or cells: HEK 293T
T4 sequence (P31421 558-872 limits assumed): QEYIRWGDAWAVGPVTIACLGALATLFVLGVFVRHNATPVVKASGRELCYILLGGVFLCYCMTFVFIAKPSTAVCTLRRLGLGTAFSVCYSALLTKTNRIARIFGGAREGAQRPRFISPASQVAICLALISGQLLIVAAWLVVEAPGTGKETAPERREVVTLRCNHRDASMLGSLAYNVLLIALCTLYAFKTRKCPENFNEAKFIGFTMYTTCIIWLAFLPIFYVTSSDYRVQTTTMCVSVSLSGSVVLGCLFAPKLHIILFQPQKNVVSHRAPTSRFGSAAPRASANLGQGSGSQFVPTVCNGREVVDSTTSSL
Source text: We therefore sought to develop a FRET sensor that reports on activation-associated motions driven by allosteric drugs and hypothesized that an N-terminal fluorophore on the isolated TMD should report on any inter-TMD rearrangement while allowing the receptor to maintain G-protein coupling (Figure 3A). […] To test if LBD-independent inter-TMD rearrangement is a feature of other mGluRs, we asked if donor and acceptor conjugation to SNAP-mGluR5-TMD would allow for the detection a FRET response to a PAM.
as §2, with “noted. For FRET experiments, cells were transfected with either SNAP-tagged constructs at 0.5–0.7 μg of DNA/well or SNAP and CLIP-tagged constructs at a ratio of 1:2 with 0.3 μg of SNAP DNA/well.” for “noted.”
as §1

SNAP-mGluR5-TMD = SNAP-mGluR5-TMD (Homo sapiens, UniProt P41594); experiment: Inter-TMD FRET assay with SNAP-mGluR5-TMD; type: cell-based, H. sapiens; conditions: mGluR5 PAM applied alone
Sequence of SNAP-mGluR5-TMD (P41594 570-876 limits assumed): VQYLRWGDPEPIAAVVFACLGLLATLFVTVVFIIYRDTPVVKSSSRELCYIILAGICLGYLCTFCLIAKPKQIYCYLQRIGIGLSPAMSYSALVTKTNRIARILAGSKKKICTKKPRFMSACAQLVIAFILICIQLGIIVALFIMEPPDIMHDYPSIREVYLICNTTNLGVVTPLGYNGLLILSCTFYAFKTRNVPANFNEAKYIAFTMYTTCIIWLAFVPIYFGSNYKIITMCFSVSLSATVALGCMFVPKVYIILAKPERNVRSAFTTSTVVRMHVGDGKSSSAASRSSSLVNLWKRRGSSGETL

[3] = Gramicidin-based fluorescence quench assay for changes of lipid bilayer properties (LUVs); type: physicochemical; conditions: 1 to 10 µM
Source text: To further probe this, we used a fluorescence quench assay for drug-induced changes of lipid bilayer properties ([Ingólfsson and Andersen, 2010]) (Figure 6—figure supplement 3A; see Materials and methods), in which changes in gramicidin channel function is used as a reporter of membrane modification. […] The persistent BINA response is thus consistent with a model where BINA readily partitions into the plasma membrane lipid bilayer (and possibly other lipidic compartments).
The gramicidin-based fluorescence assay has been described previously ([Ingólfsson and Andersen, 2010]). In brief, large unilamellar vesicles (LUVs), loaded with intravesicular ANTS were prepared from DC22:1PC and gramicidin (weight ratio 1000:1, corresponding to a ~ 2000:1 molar ratio) using freeze-drying, extrusion and size-exclusion chromatography; the final lipid concentration was 4–5 mM; the suspension was stored in the dark at 12.5°C for a maximum of 7 days. […] Before use, the LUV-ANTS stock was diluted to 200–250 μM lipid with NaNO3 buffer (140 mM NaNO3, 10 mM HEPES, pH 7).
The NAMs and PAMs (dissolved in DMSO) or DMSO (as control) were added to a LUV-ANTS sample and equilibrated at 25°C in the dark for 10 min. before the mixture was loaded into a stopped-flow spectrofluorometer (Applied Photophysics SX.20, Leatherhead, UK) and mixed with either NaNO3 buffer or TlNO3 buffer; Tl^+ (thallous ion) is a gramicidin channel-permeant quencher of the ANTS fluorescence. Samples were excited at 352 nm and the fluorescence signal above 455 nm was recorded in the absence (four successive trials) or presence (nine successive trials) of the quencher. All the NAM and PAM derivatives fluoresce to varying degrees and addition of these drugs to LUVs in control experiments without gA or Tl^+ increased the fluorescence signal, and each signal was normalized to account for the compound's fluorescence. […] The quench rate (Rate), the rate of Tl^+ influx, was determined at 2 ms: Rate=β/τ0⋅(t/τ0)^β−1|2ms […]

T1 sequence (P31421 19-872): as the sequence (P31421 19-872) above

| Compound | direct effect on inter-LBD FRET (no orthosteric agonist for modulators) [1] | EC50 (SNAP-mGluR2-TMD) [nM] | inter-TMD FRET response onset (SNAP-mGluR2-TMD; saturating concentrations) [s] | inter-TMD FRET response reversal (SNAP-mGluR2-TMD; saturating concentrations) [min] | EC50 [2] [nM] | further results |
| --- | --- | --- | --- | --- | --- | --- |
| N[C@@H](CCC(=O)O)C(=O)O [Glutamate] | large FRET decrease |  |  |  |  | two-step bleaching events of SNAP-mGluR2 with glutamate (SNAP-mGluR2): ~ 60%; GIRK current time 10% to 90% ([2]; saturating: 10 µM LY48, 1 mM Glutamate): 1.9 ± 0.5 s |
| Cc1c(C(N)=O)nc2n1C[C@@H](COc1ccc(C(C)(C)C)cc1)O2 [TASP] | no FRET response | 900 ± 100 | 10 to 40 | < 2 | 380 ± 110 | maximum inter-TMD FRET increase relative to LY48 (SNAP-mGluR2-TMD; saturating concentrations, compared to saturating LY48): ~ 1.3 times that of LY48 |
| O=C(NC1CCC1)c1ccc(C#Cc2cccc(F)c2)nc1 [VU0360172] |  |  |  |  |  | inter-TMD FRET response of SNAP-mGluR5-TMD (SNAP-mGluR5-TMD): reversible FRET response |
| O=C(O)c1cc(O)c2cccc(O)c2n1 [XA, Xanthurenic acid] |  |  |  |  |  | inter-TMD FRET response to drug alone (SNAP-mGluR2-TMD; drug applied alone, XA up to 50 µM): neither inter-TMD FRET changes |
| Cc1c(OCc2cccc(-c3ccc(C(=O)O)cc3)c2)cc2c(c1C)C(=O)C(C1CCCC1)C2 (stereo not drawn) [BINA] |  |  |  |  |  | changes in gramicidin channel function (membrane properties) [3]: greatest changes in gramicidin channel function |
| CCS(=O)(=O)N(Cc1cccnc1)c1cccc(-c2ccc(C#N)cc2)c1 [CBiPES] | no FRET response | 3500 ± 200 | 10 to 40 | < 2 | 460 ± 200 | inter-TMD FRET kinetics relative to LY48 (SNAP-mGluR2-TMD): substantially faster ON and OFF kinetics |
